Measured values reported in patent publication US11207312B2, “Metallo-beta-lactamase inhibitors and methods of use thereof” (priority 2017, dated 2021).

What was measured:
[1] = tested on: P. aeruginosa MB9799 (efflux-, IMP-1 plasmid); format: cell-based, Pseudomonas aeruginosa; conditions: efflux − (MB9799) strain; imipenem at 2 μg/mL; in the presence of a class A, C, D serine β-lactamase inhibitor closely related to relebactam
How it was run: (§1)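 PAO1-derived isogenic pair (oprD+, inducible AmpC), efflux+ MB5919 or efflux− MB5890 parent, carrying an electroporated IMP-1 plasmid from a clinical isolate. Microbroth MIC with fixed imipenem and/or ceftazidime (usually CLSI breakpoint) plus fixed class A/C inhibitor; MBL inhibitor serially titrated, concentration restoring susceptibility recorded.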

NDM-1 = NDM-1 (Klebsiella pneumoniae, UniProt C7C422); test: biochemical; format: biochemical; conditions: CCF2-FA fluorescence assay, 2 hours at 25° C.
NDM-1, sequence (C7C422 whole entry, looked up, species assumed): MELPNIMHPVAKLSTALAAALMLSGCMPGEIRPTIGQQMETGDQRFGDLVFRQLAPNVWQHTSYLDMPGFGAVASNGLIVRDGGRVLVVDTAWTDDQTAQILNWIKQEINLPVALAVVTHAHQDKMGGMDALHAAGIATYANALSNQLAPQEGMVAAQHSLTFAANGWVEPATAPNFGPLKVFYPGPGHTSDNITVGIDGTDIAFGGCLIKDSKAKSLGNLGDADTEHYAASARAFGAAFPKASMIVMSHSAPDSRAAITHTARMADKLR
How it was run: (§2)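 In pH 7 phosphate buffer (100 mM) with 10 μM ZnSO4 and 0.005% Tween-20, CCF2-FA hydrolysis (1.25 μM) by 1 pM NDM-1, 2 pM IMP-1 or 30 pM VIM-1 was run 2 h at 25° C with inhibitor from 20 to 0.00063 μM. Ex 405/em 460 nm signal fitted to a 4-parameter curve for IC50.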

VIM-2 = VIM-2 (Escherichia coli, UniProt Q5U7L7); test: biochemical; conditions: CCF2-FA fluorescence assay; read-out: VIM2 IC50
VIM-1 = VIM-1 (Pseudomonas aeruginosa (strain ATCC 15692 / DSM 22644 / CIP 104116 / JCM 14847 / LMG 12228 / 1C / PRS 101 / PAO1), UniProt A0A0F7KYQ8); test: biochemical; conditions: CCF2-FA fluorescence assay, 2 hours at 25° C.; read-out: VIM1 IC50
How it was run: as §2

IMP-1 = IMP-1 (Serratia marcescens, UniProt P52699); test: biochemical; conditions: CCF2-FA fluorescence assay, 2 hours at 25° C.; read-out: IMP1 IC50
IMP-1, sequence (P52699 whole entry, looked up, species assumed): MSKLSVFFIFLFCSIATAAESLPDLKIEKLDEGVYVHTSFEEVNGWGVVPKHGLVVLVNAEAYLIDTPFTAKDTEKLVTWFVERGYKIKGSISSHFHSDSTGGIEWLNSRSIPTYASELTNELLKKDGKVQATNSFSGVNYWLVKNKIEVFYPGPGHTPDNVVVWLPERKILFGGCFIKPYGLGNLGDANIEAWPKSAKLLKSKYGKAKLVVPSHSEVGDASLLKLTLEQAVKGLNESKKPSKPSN
How it was run: as §2

[2] = tested on: P. aeruginosa MB9798 (efflux+, IMP-1 plasmid); conditions: for MB9798 MITC95 P. aeruginosa uM Efflux WT: efflux + (MB9798) strain, imipenem at 2 μg/mL, in the presence of a class A, C, D serine β-lactamase inhibitor closely related to relebactam; for Efflux ratio: fold difference between efflux+ (MB9798) and efflux− (MB9799) strains
How it was run: as §1

[3] = tested on: Serratia marcescens expressing IMP-1 (CL5741); format: cell-based; conditions: with imipenem 1 μg/ml; 95% inhibition of bacterial growth
How it was run: (§3)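 Imipenem 1 μg/ml + inhibitor titration in cation-adjusted MHB (1.1× stock medium); overnight-cultured colonies suspended in saline, diluted 1:100. 35 °C, 22–24 h; absorbance read. MITC95 = lowest compound conc giving 95% growth inhibition.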

[4] = tested on: Klebsiella pneumoniae expressing VIM-1 (IHMA599644); format: cell-based; conditions: with imipenem 1 μg/ml; 95% inhibition of bacterial growth
How it was run: as §3

[5] = tested on: Escherichia coli expressing NDM-1 (CLB30016); format: cell-based; conditions: with imipenem 1 μg/ml; 95% inhibition of bacterial growth
How it was run: as §3

Structure (SMILES): NS(=O)(=O)c1c(S(=O)(=O)N[C@@H]2CCNC2)ccc(N2CCC(Oc3ccccn3)CC2)c1-c1nnn[nH]1 [Example 110, 4-[4-(pyridin-2-yloxy)piperidin-1-yl]-N1-[(3R)-pyrrolidin-3-yl]-3-(1H-tetrazol-5-yl)benzene-1,2-disulfonamide]
- MB9799 MITC95 P. aeruginosa uM Efflux Mutant [1]: 1.56 µM
- IC50 (NDM-1): 0.06 nM
- IC50 (VIM-2): 0.47 nM
- IC50 (VIM-1): 0.12 nM
- IC50 (IMP-1): 0.1 nM
- MB9798 MITC95 P. aeruginosa uM Efflux WT [2]: 50.00 µM
- Efflux ratio [2]: 31.99
- CL5741 S. marcescens MITC95 IMP [3]: 3.13 µM
- IHMA599644 K. pneumoniae MITC95 VIM [4]: 6.25 µM
- CLB30016 E. coli MITC95 NDM [5]: 3.13 µM

Structure (SMILES): NS(=O)(=O)c1c(S(=O)(=O)N[C@@H]2CCNC2)ccc(N2CC(N3CCOCC3)C2)c1-c1nnn[nH]1 [Example 111, 4-(3-morpholin-4-ylazetidin-1-yl)-N1-[(3R)-pyrrolidin-3-yl]-3-(1H-tetrazol-5-yl)benzene-1,2-disulfonamide]
- MB9799 MITC95 P. aeruginosa uM Efflux Mutant [1]: 1.56 µM
- IC50 (NDM-1): 4.56 nM
- IC50 (VIM-2): 8.65 nM
- IC50 (VIM-1): 1.24 nM
- IC50 (IMP-1): 4.16 nM
- MB9798 MITC95 P. aeruginosa uM Efflux WT [2]: 12.50 µM
- Efflux ratio [2]: 8.00
- CL5741 S. marcescens MITC95 IMP [3]: 1.56 µM
- IHMA599644 K. pneumoniae MITC95 VIM [4]: 3.13 µM
- CLB30016 E. coli MITC95 NDM [5]: 0.78 µM

Structure (SMILES): NS(=O)(=O)c1c(S(=O)(=O)N[C@@H]2CCNC2)ccc(N2CC(N3CCCCC3)C2)c1-c1nnn[nH]1 [Example 112, 4-(3-piperidin-1-ylazetidin-1-yl)-N1-[(3R)-pyrrolidin-3-yl]-3-(1H-tetrazol-5-yl)benzene-1,2-disulfonamide]
- MB9799 MITC95 P. aeruginosa uM Efflux Mutant [1]: 1.56 µM
- IC50 (NDM-1): 8.98 nM
- IC50 (VIM-2): 16.6 nM
- IC50 (VIM-1): 2.9 nM
- IC50 (IMP-1): 15 nM
- MB9798 MITC95 P. aeruginosa uM Efflux WT [2]: 50.00 µM
- Efflux ratio [2]: 31.99
- CL5741 S. marcescens MITC95 IMP [3]: 1.56 µM
- IHMA599644 K. pneumoniae MITC95 VIM [4]: 3.13 µM
- CLB30016 E. coli MITC95 NDM [5]: 0.78 µM

Structure (SMILES): NS(=O)(=O)c1c(S(=O)(=O)N[C@@H]2CCNC2)ccc(N2CC3(CCNCC3)C2)c1-c1nnn[nH]1 [Example 113, 4-(2,7-diazaspiro[3.5]non-2-yl)-N1-[(3R)-pyrrolidin-3-yl]-3-(1H-tetrazol-5-yl)benzene-1,2-disulfonamide]
- MB9799 MITC95 P. aeruginosa uM Efflux Mutant [1]: 0.78 µM
- IC50 (NDM-1): 13.7 nM
- IC50 (VIM-2): 119 nM
- IC50 (VIM-1): 0.81 nM
- IC50 (IMP-1): 33.1 nM
- MB9798 MITC95 P. aeruginosa uM Efflux WT [2]: 6.25 µM
- Efflux ratio [2]: 8.00
- CL5741 S. marcescens MITC95 IMP [3]: 1.56 µM
- IHMA599644 K. pneumoniae MITC95 VIM [4]: 1.56 µM
- CLB30016 E. coli MITC95 NDM [5]: 0.78 µM

Structure (SMILES): CN(C)C1(C)CN(c2ccc(S(=O)(=O)N[C@@H]3CCNC3)c(S(N)(=O)=O)c2-c2nnn[nH]2)C1 [Example 114, 4-[3-(dimethylamino)-3-methylazetidin-1-yl]-N1-[(3R)-pyrrolidin-3-yl]-3-(1H-tetrazol-5-yl)benzene-1,2-disulfonamide]
- MB9799 MITC95 P. aeruginosa uM Efflux Mutant [1]: 3.13 µM
- IC50 (NDM-1): 12 nM
- IC50 (VIM-2): 4.27 nM
- IC50 (VIM-1): 1.24 nM
- IC50 (IMP-1): 50.5 nM
- MB9798 MITC95 P. aeruginosa uM Efflux WT [2]: 12.50 µM
- Efflux ratio [2]: 4.00
- CL5741 S. marcescens MITC95 IMP [3]: 3.13 µM
- IHMA599644 K. pneumoniae MITC95 VIM [4]: 3.13 µM
- CLB30016 E. coli MITC95 NDM [5]: 1.56 µM

Structure (SMILES): CN1CCOC2(C1)CN(c1ccc(S(=O)(=O)N[C@@H]3CCNC3)c(S(N)(=O)=O)c1-c1nnn[nH]1)C2 [Example 115, 4-(8-methyl-5-oxa-2,8-diazaspiro[3.5]non-2-yl)-N1-[(3R)-pyrrolidin-3-yl]-3-(1H-tetrazol-5-yl)benzene-1,2-disulfonamide]
- MB9799 MITC95 P. aeruginosa uM Efflux Mutant [1]: 0.78 µM
- IC50 (NDM-1): 6.14 nM
- IC50 (VIM-2): 19.2 nM
- IC50 (VIM-1): 2.1 nM
- IC50 (IMP-1): 6.06 nM
- MB9798 MITC95 P. aeruginosa uM Efflux WT [2]: 12.50 µM
- Efflux ratio [2]: 16.00
- CL5741 S. marcescens MITC95 IMP [3]: 0.78 µM
- IHMA599644 K. pneumoniae MITC95 VIM [4]: 3.13 µM
- CLB30016 E. coli MITC95 NDM [5]: 0.39 µM

Structure (SMILES): COC1(CN(C)C)CN(c2ccc(S(=O)(=O)N[C@@H]3CCNC3)c(S(N)(=O)=O)c2-c2nnn[nH]2)C1 [Example 116, 4-{3-[(dimethylamino)methyl]-3-methoxyazetidin-1-yl}-N1-[(3R)-pyrrolidin-3-yl]-3-(1H-tetrazol-5-yl)benzene-1,2-disulfonamide]
- MB9799 MITC95 P. aeruginosa uM Efflux Mutant [1]: 1.56 µM
- IC50 (NDM-1): 29.3 nM
- IC50 (VIM-2): 63.9 nM
- IC50 (VIM-1): 6.97 nM
- IC50 (IMP-1): 4.62 nM
- MB9798 MITC95 P. aeruginosa uM Efflux WT [2]: 3.13 µM
- Efflux ratio [2]: 2.00
- CL5741 S. marcescens MITC95 IMP [3]: 1.56 µM
- IHMA599644 K. pneumoniae MITC95 VIM [4]: 3.13 µM
- CLB30016 E. coli MITC95 NDM [5]: 1.56 µM

Structure (SMILES): CS(=O)(=O)CCN1CCN(c2ccc(S(=O)(=O)NC[C@H](O)CN)c(S(N)(=O)=O)c2-c2nn[nH]n2)CC1 [Example 117, (R)—N1-(3-amino-2-hydroxypropyl)-4-(4-(2-(methylsulfonyl)ethyl)piperazin-1-yl)-3-(2H-tetrazol-5-yl)benzene-1,2-disulfonamide]
- MB9799 MITC95 P. aeruginosa uM Efflux Mutant [1]: 3.13 µM
- IC50 (NDM-1): 0.94 nM
- IC50 (VIM-2): 2.28 nM
- IC50 (VIM-1): 2.58 nM
- IC50 (IMP-1): 0.55 nM
- MB9798 MITC95 P. aeruginosa uM Efflux WT [2]: 12.50 µM
- Efflux ratio [2]: 4.00
- CL5741 S. marcescens MITC95 IMP [3]: 0.78 µM
- IHMA599644 K. pneumoniae MITC95 VIM [4]: 6.25 µM
- CLB30016 E. coli MITC95 NDM [5]: 3.13 µM

Structure (SMILES): NC[C@@H](O)CNS(=O)(=O)c1ccc(N2CCC(C(N)=O)C2)c(-c2nn[nH]n2)c1S(N)(=O)=O (stereo partly drawn) [Example 118, 1-(4-(N—((R)-3-amino-2-hydroxypropyl)sulfamoyl)-3-sulfamoyl-2-(2H-tetrazol-5-yl)phenyl)pyrrolidine-3-carboxamide]
- MB9799 MITC95 P. aeruginosa uM Efflux Mutant [1]: 1.56 µM
- IC50 (NDM-1): 1.55 nM
- IC50 (VIM-2): 2.44 nM
- IC50 (VIM-1): 1.2 nM
- IC50 (IMP-1): 1.25 nM
- MB9798 MITC95 P. aeruginosa uM Efflux WT [2]: 1.56 µM
- Efflux ratio [2]: 1.00
- CL5741 S. marcescens MITC95 IMP [3]: 1.56 µM
- IHMA599644 K. pneumoniae MITC95 VIM [4]: 3.13 µM
- CLB30016 E. coli MITC95 NDM [5]: 1.56 µM

Structure (SMILES): NCC(=O)N1CCN(c2ccc(S(=O)(=O)NC[C@H](O)CN)c(S(N)(=O)=O)c2-c2nn[nH]n2)CC1 [Example 119, (R)—N1-(3-amino-2-hydroxypropyl)-4-(4-(2-aminoacetyl)piperazin-1-yl)-3-(2H-tetrazol-5-yl)benzene-1,2-disulfonamide]
- MB9799 MITC95 P. aeruginosa uM Efflux Mutant [1]: 0.78 µM
- IC50 (NDM-1): 3.45 nM
- IC50 (VIM-2): 10.1 nM
- IC50 (VIM-1): 0.57 nM
- IC50 (IMP-1): 6.56 nM
- MB9798 MITC95 P. aeruginosa uM Efflux WT [2]: 1.56 µM
- Efflux ratio [2]: 2.00
- CL5741 S. marcescens MITC95 IMP [3]: 0.78 µM
- IHMA599644 K. pneumoniae MITC95 VIM [4]: 1.56 µM
- CLB30016 E. coli MITC95 NDM [5]: 0.78 µM

Structure (SMILES): NC[C@@H](O)CNS(=O)(=O)c1ccc(N2CCC(O)CC2)c(-c2nn[nH]n2)c1S(N)(=O)=O [Example 120, (R)-N1-(3-amino-2-hydroxypropyl)-4-(4-hydroxypiperidin-1-yl)-3-(2H-tetrazol-5-yl)benzene-1,2-disulfonamide]
- MB9799 MITC95 P. aeruginosa uM Efflux Mutant [1]: 1.56 µM
- IC50 (NDM-1): 0.56 nM
- IC50 (VIM-2): 0.79 nM
- IC50 (VIM-1): 0.26 nM
- IC50 (IMP-1): 0.76 nM
- MB9798 MITC95 P. aeruginosa uM Efflux WT [2]: 1.56 µM
- Efflux ratio [2]: 1.00
- CL5741 S. marcescens MITC95 IMP [3]: 1.56 µM
- IHMA599644 K. pneumoniae MITC95 VIM [4]: 3.13 µM
- CLB30016 E. coli MITC95 NDM [5]: 1.56 µM
